In general, IC50 refers to the concentration that inhibits the measured activity by half.

Inhibition of growth and IC50 data for 60 compounds are collected here from ChEMBL document CHEMBL4765411, “Discovery of 2-(2-aminobenzo[d]thiazol-6-yl) benzo[d]oxazol-5-amine derivatives that regulated HPV relevant cellular pathway and prevented cervical cancer from abnormal proliferation” (Eur J Med Chem, 2020).

Assay [1] relates to HeLa. Briefly: Antiproliferative activity against human HeLa cells assessed as growth inhibition at 20 uM viability after 72 hrs by SRB assay relative to control. The class given is functional. The conditions noted are these: read-out: GI.
Assay [2] has as its system HeLa. Briefly: Antiproliferative activity against human HeLa cells assessed as growth inhibition at 1 uM viability after 72 hrs by SRB assay relative to control. The class given is functional. The conditions noted are these: read-out: GI. (The SRB assay estimates cell density from bound dye.)
For assay [3], the system named is HeLa. Briefly: Antiproliferative activity against human HeLa cells assessed as reduction in cell viability after 72 hrs by SRB assay. The class given is functional, cell-based.

As for `Cc1nc2cc(N)ccc2s1`, in the assay on HeLa [1], the inhibition of growth at 20 µM was 6.1%.

`COc1cccc2sc(N)nc12`: the inhibition of growth at 20 µM in the assay on HeLa [1] was 0.6%.

Turning to `Nc1ccc2oc(-c3cccnc3)nc2c1`, the inhibition of growth at 20 µM with HeLa [1] stood at 1.3%.

As to `Nc1ccc2oc(-c3ccccc3F)nc2c1`, in the assay on HeLa [1], the inhibition of growth at 20 µM came to 42.4%.

Turning to `Nc1nc2ccccc2[nH]1`, in the assay on HeLa [1], the inhibition of growth at 20 µM turned out to be 1.1%.

Turning to `COc1ccc(-c2nc3cc(N)ccc3o2)cc1`, the inhibition of growth at 20 µM in the assay with HeLa [1] was 42.6%.

Regarding `CCNC(=O)Nc1ccc2oc(-c3ccc4nc(N)sc4c3)nc2c1`, the inhibition of growth at 1 µM with HeLa [2] was 0.7%. Besides, the inhibition of growth at 20 µM in the assay on HeLa [1] was 6.8%.

Take `Nc1ccc(-c2nc3ccccc3[nH]2)c(N)c1`: in the assay on HeLa [1], the inhibition of growth at 20 µM is 0.2%.

Turning to `Nc1nc2ccc([N+](=O)[O-])cc2s1`, in the assay on HeLa [1], the inhibition of growth at 20 µM came to 6%.

`O=[N+]([O-])c1ccc(-c2nc3cc([N+](=O)[O-])ccc3o2)cc1`: the inhibition of growth at 20 µM with HeLa [1] is 3.8%.

Consider `c1cncc(-c2nc3ccccc3s2)c1`, for which, in the assay on HeLa [1], the inhibition of growth at 20 µM worked out at 4.4%.

`Brc1ccc(-c2nc3ccccc3s2)cc1`: in the assay with HeLa [1], the inhibition of growth at 20 µM amounted to 5.5%.

As for `Nc1nc2ccc(-c3nc4ccccc4s3)cc2s1`, the inhibition of growth at 20 µM in the assay with HeLa [1] is 47.8%.

For the compound `Nc1ccc(-c2nc3cc(N)ccc3o2)cc1`, in the assay on HeLa [1], the inhibition of growth at 20 µM turned out to be 1.2%.

Consider `Nc1ccc2oc(-c3ccc(Cl)cc3Cl)nc2c1`, for which, in the assay with HeLa [1], the inhibition of growth at 20 µM is 6%.

With `C[n+]1ccccc1-c1nc2ccccc2s1`, in the assay on HeLa [1], the inhibition of growth at 20 µM turned out to be 1.2%.

Turning to `Nc1ccc(-c2nc3cc(N)ccc3[nH]2)cc1`, in the assay on HeLa [1], the inhibition of growth at 20 µM was 4%.

As to `COc1ccc(-c2nc3ccccc3s2)cc1`, the inhibition of growth at 20 µM with HeLa [1] stood at 0.1%.

Regarding `Nc1ccc2oc(-c3cc(I)ccc3Cl)nc2c1`, the inhibition of growth at 20 µM in the assay with HeLa [1] came out at 26.5%.

As for `Nc1ccc2oc(-c3ccccc3)nc2c1`, the inhibition of growth at 20 µM in the assay with HeLa [1] is -2.3%.

With `Nc1ccc(-c2nc3ccccc3o2)cc1`, the inhibition of growth at 20 µM with HeLa [1] was 19.3%.

Turning to `O=C(Nc1nc2ccccc2s1)c1c(Cl)cccc1Cl`, the inhibition of growth at 20 µM in the assay on HeLa [1] worked out at 3.5%.

Consider `COc1ccc2sc(N)nc2c1`, for which, in the assay with HeLa [1], the inhibition of growth at 20 µM was found to be 12.2%.

With `Clc1ccccc1-c1nc2ccccc2s1`, the inhibition of growth at 20 µM in the assay on HeLa [1] was determined as 4.9%.

Turning to `Nc1ccc2nn(-c3ccccc3)nc2c1`, the inhibition of growth at 20 µM with HeLa [1] turned out to be 53%.

As to `c1ccc(-c2nc3ccccc3[nH]2)nc1`, in the assay on HeLa [1], the inhibition of growth at 20 µM is 2.5%.

`O=[N+]([O-])c1cccc(-c2nc3ccccc3s2)c1`: the inhibition of growth at 20 µM in the assay with HeLa [1] was 4.4%.

Take `Nc1ccc2oc(-c3ccc4ncsc4c3)nc2c1`: the IC50 in the assay with HeLa [3] was determined as 7.08 µM. For the same compound, the inhibition of growth at 1 µM in the assay on HeLa [2] turned out to be 20.3%. Besides, the inhibition of growth at 20 µM with HeLa [1] came to 58%.

For `Nc1ccc2nc(-c3ccccc3)oc2c1`, the inhibition of growth at 20 µM in the assay with HeLa [1] is -0.7%.

In the case of `COc1ccc2nc(N)sc2c1`, in the assay on HeLa [1], the inhibition of growth at 20 µM was -3.4%.

Take `Nc1ccc(O)c(-n2nc3ccc(N)cc3n2)c1`: the inhibition of growth at 20 µM with HeLa [1] stood at 7.1%.

Regarding `Nc1cccc(-c2nc3ccccc3[nH]2)c1`, in the assay on HeLa [1], the inhibition of growth at 20 µM worked out at 0%.

As for `c1ccc(-c2nc3ccccc3s2)cc1` [2-PHENYLBENZO[D]THIAZOLE], in the assay with HeLa [1], the inhibition of growth at 20 µM stood at 2.6%.

With `Brc1cccc(-c2nc3ccccc3s2)c1`, in the assay on HeLa [1], the inhibition of growth at 20 µM is 2.6%.

Regarding `Nc1nc2ccc(-c3nc4ccccc4o3)cc2s1`, the IC50 in the assay with HeLa [3] came out at 0.82 µM. Besides, in the assay with HeLa [2], the inhibition of growth at 1 µM is 59.6%. Further, the inhibition of growth at 20 µM in the assay on HeLa [1] was 67.2%.

Turning to `CCOc1ccc(-c2nc3cc(N)ccc3o2)cc1`, in the assay with HeLa [1], the inhibition of growth at 20 µM is 5.8%.

As to `C[S+]([O-])c1ccc2nc(N)sc2c1` (configuration not stated), the inhibition of growth at 20 µM in the assay on HeLa [1] is 9.1%.

On to `Sc1nc2ccccc2s1` [2-MERCAPTOBENZOTHIAZOLE], for which the inhibition of growth at 20 µM in the assay on HeLa [1] came to 7.9%.

On to `CN(C)c1ccc(-c2nc3cc(N)ccc3o2)cc1`, for which, in the assay with HeLa [1], the inhibition of growth at 20 µM is 8.9%.

With `O=S(=O)(O)c1nc2ccccc2s1`, in the assay with HeLa [1], the inhibition of growth at 20 µM stood at 25%.

On to `FC(F)(F)c1ccc(-c2nc3ccccc3s2)nn1`, for which the inhibition of growth at 20 µM in the assay with HeLa [1] is 9.7%.

Regarding `Cc1nc(-c2nc3ccccc3s2)n[nH]1`, the inhibition of growth at 20 µM in the assay with HeLa [1] stood at 6.6%.

Take `Nc1nc2c(Br)cccc2s1`: the inhibition of growth at 20 µM in the assay with HeLa [1] was 1.7%.

On to `Oc1c(Br)cc(Br)cc1-c1nc2ccccc2s1`, for which the inhibition of growth at 20 µM in the assay with HeLa [1] was 4%.

Turning to `Nc1ccc2sc(N)nc2c1`, the inhibition of growth at 20 µM with HeLa [1] amounted to 9.6%.

For the compound `Nc1cc(N)cc(-c2nc3ccccc3[nH]2)c1`, the inhibition of growth at 20 µM in the assay with HeLa [1] is 34.5%.

With `CC[n+]1ccccc1-c1nc2ccccc2s1`, the inhibition of growth at 20 µM with HeLa [1] came out at 2.1%.

Regarding `O=C(Nc1nc2ccccc2s1)c1cccnc1Cl`, the inhibition of growth at 20 µM with HeLa [1] is 5.5%.

For `Nc1nc2cccc(Cl)c2s1`, the inhibition of growth at 20 µM in the assay on HeLa [1] was determined as 5.3%.

In the case of `Clc1ccc(-c2nc3ccccc3s2)c(Cl)c1`, the inhibition of growth at 20 µM with HeLa [1] was 0.3%.

For `Nc1ccc2oc(-c3cc(Cl)ccc3Cl)nc2c1`, the inhibition of growth at 20 µM with HeLa [1] was -0.2%.

`Nc1ccc2oc(-c3cccc4c(Br)cccc34)nc2c1`: the inhibition of growth at 20 µM in the assay on HeLa [1] came to 13.8%.

`Nc1ccc2nc(N)sc2c1`: the inhibition of growth at 20 µM in the assay with HeLa [1] came out at 6.9%.

Turning to `Nc1ccc(Br)cc1-c1nc2ccccc2s1`, in the assay on HeLa [1], the inhibition of growth at 20 µM worked out at 0.8%.

As to `N#Cc1ccc(-c2nc3ccccc3s2)cc1`, in the assay with HeLa [1], the inhibition of growth at 20 µM stood at 10.8%.

For the compound `Nc1ccc(-c2nc3ccccc3[nH]2)cc1`, the inhibition of growth at 20 µM in the assay with HeLa [1] amounted to 1.9%.

For `COc1ccc(-c2nc3cc(N)ccc3o2)cc1OC`, the inhibition of growth at 20 µM in the assay on HeLa [1] worked out at 2.3%.

On to `Nc1cccc(-c2nc3ccccc3s2)c1`, for which the inhibition of growth at 20 µM in the assay on HeLa [1] was found to be 1.7%.

Take `Oc1ccccc1-c1nc2ccccc2s1`: in the assay with HeLa [1], the inhibition of growth at 20 µM was 8.1%.

`c1ccc2oc(-c3ccc4ncsc4c3)nc2c1`: in the assay with HeLa [3], the IC50 was 6 µM. In the assay on HeLa [2], the inhibition of growth at 1 µM came to 17.6%. The inhibition of growth at 20 µM with HeLa [1] came to 49.2%.
